Data on 24 compounds can be found in patent US20250340575A1, “4-AMINOPYRROLO[2,1-F][1,2,4]TRIAZINES AND PREPARATION AND USES THEREOF” (Biosplice Therapeutics, Inc., priority 2024, published 2025).

The structures appear in SMILES notation. pIC50: −log10 of the molar value.

This test concerns the target recombinant DYRK1A kinase (Homo sapiens, UniProt Q13627). Briefly: DYRK1A kinase assay (Ser/Thr 18 peptide Z-lyte FRET). The format is biochemical. As to conditions: DYRK1A 0.25 μg/mL, ATP 15 μM, Ser/Thr peptide 18 4 μM, one hour at room temperature, 11-point dose-response from 10 μM.
As to `CNc1nc(N[C@H]2CC[C@](C)(O)CC2)nn2cc(F)c(-c3ccc4nnn(CCF)c4n3)c12` [Compound 248, (1r,4r)-4-((6-Fluoro-5-(3-(2-fluoroethyl)-3H-[1,2,3]triazolo[4,5-b]pyridin-5-yl)-4-(methylamino)pyrrolo[2,1-f][1,2,4]triazin-2-yl)amino)-1-methylcyclohexan-1-ol], the pIC50 was 8.70. For `CNc1nc(N[C@H]2CCN(C(C)=O)C[C@H]2F)nn2cc(F)c(-c3ccc4nnn(CCF)c4n3)c12` [Compound 249, 1-((3R,4S)-3-Fluoro-4-((6-fluoro-5-(3-(2-fluoroethyl)-3H-[1,2,3]triazolo[4,5-b]pyridin-5-yl)-4-(methylamino)pyrrolo[2,1-f][1,2,4]triazin-2-yl)amino)piperidin-1-yl)ethan-1-one], the negative-log IC50 (pIC50) was 8.72. For the compound `CNc1nc(N[C@H]2CCN(C3COC3)C[C@H]2F)nn2cc(F)c(-c3ccc4nnn(CCF)c4n3)c12` [Compound 250, 6-Fluoro-N^2-((3R,4S)-3-fluoro-1-(oxetan-3-yl)piperidin-4-yl)-5-(3-(2-fluoroethyl)-3H-[1,2,3]triazolo[4,5-b]pyridin-5-yl)-N^4-methylpyrrolo[2,1-f][1,2,4]triazine-2,4-diamine], the pIC50 is 9.15. In the case of `CNc1nc(N[C@@H]2CCN(C)CC2(F)F)nn2cc(F)c(-c3ccc4nnn(CCF)c4n3)c12` [Compound 251, (R)—N^2-(3,3-Difluoro-1-methylpiperidin-4-yl)-6-fluoro-5-(3-(2-fluoroethyl)-3H-[1,2,3]triazolo[4,5-b]pyridin-5-yl)-N^4-methylpyrrolo[2,1-f][1,2,4]triazine-2,4-diamine] it was 8.66; in that of `CNc1nc(N[C@@H]2CCN(C(C)=O)CC2(F)F)nn2cc(F)c(-c3ccc4nnn(CCF)c4n3)c12` [Compound 252, (R)-1-(3,3-Difluoro-4-((6-fluoro-5-(3-(2-fluoroethyl)-3H-[1,2,3]triazolo[4,5-b]pyridin-5-yl)-4-(methylamino)pyrrolo[2,1-f][1,2,4]triazin-2-yl)amino)piperidin-1-yl)ethan-1-one], 8.72. Regarding `CNc1nc(N[C@@H]2CCN(C3COC3)CC2(F)F)nn2cc(F)c(-c3ccc4nnn(CCF)c4n3)c12` [Compound 254, (R)—N^2-(3,3-Difluoro-1-(oxetan-3-yl)piperidin-4-yl)-6-fluoro-5-(3-(2-fluoroethyl)-3H-[1,2,3]triazolo[4,5-b]pyridin-5-yl)-N^4-methylpyrrolo[2,1-f][1,2,4]triazine-2,4-diamine], the pIC50 is 8.66.

Take `COCCN1CC[C@H](Nc2nc(N)c3c(-c4ccc5nnn(CC(F)F)c5n4)ccn3n2)[C@H](F)C1` [Compound 256, 5-(3-(2,2-Difluoroethyl)-3H-[1,2,3]triazolo[4,5-b]pyridin-5-yl)-N^2-((3R,4S)-3-fluoro-1-(2-methoxyethyl)piperidin-4-yl)pyrrolo[2,1-f][1,2,4]triazine-2,4-diamine]: the pIC50 is 8.46.

For `C[C@]1(O)CC[C@H](Nc2nc(N)c3c(-c4ccc5nnn(CC(F)F)c5n4)c(F)cn3n2)CC1` [Compound 257, (1r,4r)-4-((4-Amino-5-(3-(2,2-difluoroethyl)-3H-[1,2,3]triazolo[4,5-b]pyridin-5-yl)-6-fluoropyrrolo[2,1-f][1,2,4]triazin-2-yl)amino)-1-methylcyclohexan-1-ol], the pIC50 is 8.85.

Take `CC(=O)N1CC[C@H](Nc2nc(N)c3c(-c4ccc5nnn(CC(F)F)c5n4)c(F)cn3n2)[C@H](F)C1` [Compound 258, 1-((3R,4S)-4-((4-amino-5-(3-(2,2-difluoroethyl)-3H-[1,2,3]triazolo[4,5-b]pyridin-5-yl)-6-fluoropyrrolo[2,1-f][1,2,4]triazin-2-yl)amino)-3-fluoropiperidin-1-yl)ethan-1-one]: the pIC50 is 8.89. The same measure for `Nc1nc(N[C@H]2CCN(C3COC3)C[C@H]2F)nn2cc(F)c(-c3ccc4nnn(CC(F)F)c4n3)c12` [Compound 260, 5-(3-(2,2-Difluoroethyl)-3H-[1,2,3]triazolo[4,5-b]pyridin-5-yl)-6-fluoro-N^2-((3R,4S)-3-fluoro-1-(oxetan-3-yl)piperidin-4-yl)pyrrolo[2,1-f][1,2,4]triazine-2,4-diamine]: 8.74. In the case of `CN1CC[C@@H](Nc2nc(N)c3c(-c4ccc5nnn(CC(F)F)c5n4)c(F)cn3n2)C(F)(F)C1` [Compound 261, (R)—N^2-(3,3-Difluoro-1-methylpiperidin-4-yl)-5-(3-(2,2-difluoroethyl)-3H-[1,2,3]triazolo[4,5-b]pyridin-5-yl)-6-fluoropyrrolo[2,1-f][1,2,4]triazine-2,4-diamine] it was 9.22; in that of `CC(=O)N1CC[C@@H](Nc2nc(N)c3c(-c4ccc5nnn(CC(F)F)c5n4)c(F)cn3n2)C(F)(F)C1` [Compound 262, (R)-1-(4-((4-Amino-5-(3-(2,2-difluoroethyl)-3H-[1,2,3]triazolo[4,5-b]pyridin-5-yl)-6-fluoropyrrolo[2,1-f][1,2,4]triazin-2-yl)amino)-3,3-difluoropiperidin-1-yl)ethan-1-one], 8.89; in that of `Nc1nc(N[C@@H]2CCN(C3COC3)CC2(F)F)nn2cc(F)c(-c3ccc4nnn(CC(F)F)c4n3)c12` [Compound 264, (R)—N^2-(3,3-Difluoro-1-(oxetan-3-yl)piperidin-4-yl)-5-(3-(2,2-difluoroethyl)-3H-[1,2,3]triazolo[4,5-b]pyridin-5-yl)-6-fluoropyrrolo[2,1-f][1,2,4]triazine-2,4-diamine], 8.92. In the case of `CC[C@]1(O)C[C@H](Nc2nc(NC)c3c(-c4ccc5nnn(CC(F)F)c5n4)ccn3n2)C1` [Compound 267, (1r,3s)-3-((5-(3-(2,2-Difluoroethyl)-3H-[1,2,3]triazolo[4,5-b]pyridin-5-yl)-4-(methylamino)pyrrolo[2,1-f][1,2,4]triazin-2-yl)amino)-1-ethylcyclobutan-1-ol] it was 9.30; in that of `CNc1nc(NC2CCN(CC(F)F)CC2)nn2ccc(-c3ccc4nnn(CC(F)F)c4n3)c12` [Compound 270, 5-(3-(2,2-Difluoroethyl)-3H-[1,2,3]triazolo[4,5-b]pyridin-5-yl)-N^2-(1-(2,2-difluoroethyl)piperidin-4-yl)-N^4-methylpyrrolo[2,1-f][1,2,4]triazine-2,4-diamine], 8.77; in that of `CNc1nc(NC2CCN(C3COC3)CC2)nn2ccc(-c3ccc4nnn(CC(F)F)c4n3)c12` [Compound 271, 5-(3-(2,2-Difluoroethyl)-3H-[1,2,3]triazolo[4,5-b]pyridin-5-yl)-N^4-methyl-N^2-(1-(oxetan-3-yl)piperidin-4-yl)pyrrolo[2,1-f][1,2,4]triazine-2,4-diamine], 8.54.

For the compound `CNc1nc(N[C@@H]2CCN(C)C[C@@H]2F)nn2ccc(-c3ccc4nnn(CC(F)F)c4n3)c12` [Compound 272, 5-(3-(2,2-Difluoroethyl)-3H-[1,2,3]triazolo[4,5-b]pyridin-5-yl)-N^2-((3S,4R)-3-fluoro-1-methylpiperidin-4-yl)-N^4-methylpyrrolo[2,1-f][1,2,4]triazine-2,4-diamine], the pIC50 is 8.30. The same measure for `CNc1nc(N[C@H]2CCN(C)C[C@H]2F)nn2ccc(-c3ccc4nnn(CC(F)F)c4n3)c12` [Compound 273, 5-(3-(2,2-Difluoroethyl)-3H-[1,2,3]triazolo[4,5-b]pyridin-5-yl)-N^2-((3R,4S)-3-fluoro-1-methylpiperidin-4-yl)-N^4-methylpyrrolo[2,1-f][1,2,4]triazine-2,4-diamine]: 8.57; for `CNc1nc(N[C@H]2CCN(CCF)C[C@H]2F)nn2ccc(-c3ccc4nnn(CC(F)F)c4n3)c12` [Compound 274, 5-(3-(2,2-Difluoroethyl)-3H-[1,2,3]triazolo[4,5-b]pyridin-5-yl)-N^2-((3R,4S)-3-fluoro-1-(2-fluoroethyl)piperidin-4-yl)-N^4-methylpyrrolo[2,1-f][1,2,4]triazine-2,4-diamine]: 8.44; for `CNc1nc(N[C@H]2CCN(CCOC)C[C@H]2F)nn2ccc(-c3ccc4nnn(CC(F)F)c4n3)c12` [Compound 275, 5-(3-(2,2-Difluoroethyl)-3H-[1,2,3]triazolo[4,5-b]pyridin-5-yl)-N^2-((3R,4S)-3-fluoro-1-(2-methoxyethyl)piperidin-4-yl)-N^4-methylpyrrolo[2,1-f][1,2,4]triazine-2,4-diamine]: 8.08. In the case of `CNc1nc(N[C@@H]2CCN(C(=O)CO)CC2(F)F)nn2ccc(-c3ccc4nnn(CC(F)F)c4n3)c12` [Compound 276, (R)-1-(4-((5-(3-(2,2-Difluoroethyl)-3H-[1,2,3]triazolo[4,5-b]pyridin-5-yl)-4-(methylamino)pyrrolo[2,1-f][1,2,4]triazin-2-yl)amino)-3,3-difluoropiperidin-1-yl)-2-hydroxyethan-1-one], the pIC50 is 8.92. The same measure for `CNc1nc(N[C@H]2CC[C@](C)(O)CC2)nn2cc(F)c(-c3ccc4nnn(CC(F)F)c4n3)c12` [Compound 286, (1r,4r)-4-((5-(3-(2,2-Difluoroethyl)-3H-[1,2,3]triazolo[4,5-b]pyridin-5-yl)-6-fluoro-4-(methylamino)pyrrolo[2,1-f][1,2,4]triazin-2-yl)amino)-1-methylcyclohexan-1-ol]: 8.44.

Consider `CNc1nc(N[C@H]2CCN(C(C)=O)C[C@H]2F)nn2cc(F)c(-c3ccc4nnn(CC(F)F)c4n3)c12` [Compound 288, 1-((3R,4S)-4-((5-(3-(2,2-Difluoroethyl)-3H-[1,2,3]triazolo[4,5-b]pyridin-5-yl)-6-fluoro-4-(methylamino)pyrrolo[2,1-f][1,2,4]triazin-2-yl)amino)-3-fluoropiperidin-1-yl)ethan-1-one], for which the pIC50 is 8.62.

Take `CNc1nc(N[C@H]2CCN(C3COC3)C[C@H]2F)nn2cc(F)c(-c3ccc4nnn(CC(F)F)c4n3)c12` [Compound 290, 5-(3-(2,2-Difluoroethyl)-3H-[1,2,3]triazolo[4,5-b]pyridin-5-yl)-6-fluoro-N^2-((3R,4S)-3-fluoro-1-(oxetan-3-yl)piperidin-4-yl)-N^4-methylpyrrolo[2,1-f][1,2,4]triazine-2,4-diamine]: the pIC50 is 8.92.

The term pIC50 denotes the IC50 on a negative log10 scale, so that one unit is a factor of ten.
